Experiments:
[1] = system: Sprague-Dawley rats; assay: Biomarker gene expression in distal colon, TNBS rat colitis model, quantitative real time PCR (Example E3); type: in vivo; details: 31 mg/kg/day, normalized to HPRT1, vs vehicle group
Protocol: Animals from the sham group (without TNBS exposure), the vehicle group (exposed to TNBS and treated with vehicle only) and the group treated with Peptide 993 (exposed to TNBS and treated with Peptide 993 at 31 mg/kg/day) were subjected for gene expression and miroRNA analysis
For extraction of total RNA from the distal colons, tissue samples stored at −20° C. in the buffer RNAlater, were thawed and homogenized in RLTplus Buffer (Qiagen) at 20× volume:wt, then subsequently purified using the RNeasy Plus Mini Kit (Qiagen). The concentration of the total RNA was measured and the quality of the RNAs was verified on a gel. The total RNA was used in QuantiTect Reverse Transcription Kit (Qiagen) to obtain cDNA templates for the quantative real time PCR. The expression of the genes LCN2 (Lipocalin 2), S100A8 (a subunit of calprotectin) and CLDN8 (Claudin 8 of the claudin family of tight junction proteins) were measured using Taqman and TaqMan Fast Advanced Master Mix (Applied Biosystems). The threshold cycle number (Ct) values, that are indicative of abundance of template, were normalized using the endogenous control gene HPRT1. The Relative expression of each gene was calculated using the normalized Ct values. Statistical analysis of relative expression was performed using One-way ANOVA method (with Dunnett's multiple comparisons) to compare the variations Vs Group 2.

[2] = system: Sprague-Dawley rats; assay: Distal colon markers in TNBS-induced rat colitis: MPO, IL-17A, IL-22 by ELISA, pStat3 by IHC (Example E4); type: in vivo
Protocol: In the first model, acute colitis was induced in Sprague-Dawley rats by a single intra-rectal instillation of TNBS followed by efficacy analysis at day seven. The animals were grouped into sham+vehicle (PO TID), TNBS+vehicle (PO TID), anti-IL23p19 antibody (4 mg/kg/day IP, Day −1 and Day 3), and Peptide 993 treatment at 9, 28, or 61 mg/kg/day (PO TID+in drinking water). Sham indicates animals not treated with TNBS.
In addition, myeloperoxidase (MPO), IL-17A, and IL-22 detected from sampled tissue were quantified by enzyme-linked immunosorbent assay (ELISA), and the results are shown in FIGS. 10A-10C. The percentage of phosphorylated Signal Transducer and Activator of Transcription 3 (Stat3) was normalized to the area of the distal colon quantified by immuno-histochemistry (IHC) (FIG. 10D), and the micrographs shown in FIG. 10E are representative images from each indicated group for IHC analysis of pStat3 expression. Values shown as mean±SD. Statistical significance was assessed by One-way ANOVA with post-hoc Dunnett's vs. Vehicle control: *p≤0.05; **p≤0.01; ***p≤0.001; ****p≤0.0001; ns, not significant.
For the pSTAT3 assays, colon tissue samples were processed routinely, sectioned at approximately 3-5 microns, fixed in 10% neutral buffered formaldehyde, processed in paraffin, and immunolabeled with an anti-pSTAT3 primary antibody that binds STAT3 phosphorylated at Tyrosine 705 (Abcam, Cat. No. ab76315 PUR). pSTAT3 immunolabel as a percentage of total areas was measured using Visiopharm© image analysis software. Image analysis involved outlining the colon tissue as a region of interest (ROI), then an automated thresholding method was utilized for the classification of the pSTAT3 positive immunolabel. After classification, the total tissue area within the ROI was calculated, along with the count of pSTAT3 positive cells and the area (in microns) of the pSTAT3 positive cells. Lastly, the pSTAT3 immunolabel percentage of the total tissue area was calculated.
The details of the pSTAT3 Image Analysis Protocol were as follows:
1. ROI • a. Tissue was outlined, and non-colon tissues were excluded.
2. Pre-processing • a. Image was converted into grayscale-pixel values processed to be 0-255 • b. Grayscale image was filtered into two channels: • i. The DAB (or pSTAT3 positive) channel with pixels associated with the brown DAB staining; and • ii. The hematoxylin channel with pixels associated with the tissue area not stained with DAB (includes all tissue area and background staining).
3. Analysis & Classification • a. Algorithm using a “threshold” method was used to classify the tissue area within the ROI. • i. Threshold of the DAB channel was set to classify the positive pSTAT3 stained cells as any/all pixels (from the DAB channel of the pre-processed image) with values between 0-135. A green label was applied to these positively classified cells. • 1. Pixels with values outside the threshold of 0-135 were considered to be part of the tissue area (within the ROI). • b. […]
4. […] The total tissue area (within the ROI) was calculated-unit was in microns. • b. The total pSTAT3 positive area was calculated-unit is in microns. • c. The “count” of pSTAT3 positive cells was calculated. • d. The fraction of pSTAT3 positive cells was calculated by dividing the pSTAT3 positive area by the total tissue area-unit was in microns. • e. The nuclear density per square millimeter was calculated, simply to change the units from microns to square millimeter.

[3] = system: Sprague-Dawley rats; assay: IL-23-directed cytokines in distal colon of 5% DSS-induced acute colitis rats, qRT-PCR and ELISA (Example E4); type: in vivo, rat
Protocol: In the second model, acute colitis was induced in Sprague-Dawley rats by ad libitum access to 5% DSS dissolved in drinking water every day until analysis at day five. The animals were grouped into sham+vehicle (PO TID), DSS+vehicle (PO TID), and DSS+Peptide 993 treatment at 61 mg/kg/day (PO TID+in drinking water).
Expression of genes encoding IL-17A, IL-17F, and IL-22 was quantified by quantitative reverse transcription polymerase chain reaction (qRT-PCR), and production of IL-22 protein was quantified by ELISA. Relative expression was normalized to that of HPRT1; and values were determined as geometric mean±95% confidence interval. Protein concentration is shown as mean±SD. Statistical significance was assessed by One-way ANOVA with post-hoc Dunnett's vs. Vehicle control: *p≤0.05; **p≤0.01; ***p≤0.001; ns, not significant.

[4] = TNBS rats, oral treatment, ELISA
[5] = DSS rats, 61 mg/kg/day oral, distal colon, normalized to HPRT1

CC(=O)NC(CCCNC(=N)N)C(=O)NC1CCSCC(C(=O)NC(Cc2ccc(OCCN)cc2)C(=O)NC(Cc2ccc3ccccc3c2)C(=O)NC2(C(=O)NC(CCC(=O)O)C(=O)NC(CC(N)=O)C(=O)NC(CC(N)=O)C(N)=O)CCOCC2)NC(=O)C(CCC(N)=O)NC(=O)C(Cc2c[nH]c3ccccc23)NC(=O)C(C(C)O)NC(=O)C(CCC(N)=O)NC1=O (stereo not shown) [Peptide 993, Ac-[(D)-Arg]-cyclo[[Abu]-QTWQC]-[Phe[4-(2-aminoethoxy)]]-[2-Nal]-[4-amino-4-carboxy-tetrahydropyran]-ENN-NH2]
S100A8 expression, distal colon [1]: not statistically significant, however there was a marked reduction in the average expression of the group
relative expression of CLDN8, distal colon [1]: increase
relative expression of LCN2, distal colon [1]: significant reduction
disease-related and IL-23-directed markers in the distal colons (MPO, IL-17A, IL-22, pStat3) ([2]; TNBS rats, 9, 28 or 61 mg/kg/day oral, vs vehicle): significant and dose-dependent reduction
colonic levels of MPO [2, 4]: decreased
levels of IL-17A, distal colon [2, 4]: significantly reduced
levels of IL-22, distal colon [2, 4]: significantly reduced
levels of pStat3, distal colon ([2]; TNBS rats, oral treatment, IHC, percentage of area): restored to control levels
abundance of IL-22 protein ([3]; DSS rats, 61 mg/kg/day oral, distal colon, ELISA): significant decreases
relative expression of gene encoding IL-17A [3, 5]: significant decreases
relative expression of gene encoding IL-17F [3, 5]: significant decreases
relative expression of gene encoding IL-22 [3, 5]: significant decreases
mRNA and/or protein levels of IL-23-directed cytokines in the distal colons ([3]; DSS-treated rats, 61 mg/kg/day PO TID + in drinking water, day five, vs vehicle): significant reduction
